pIC50: −log10 of the molar value.
Tested on: ApoB-100-associated lipoproteins (HepG2 cells)
Assay: Inhibition of the release of ApoB-100-associated lipoproteins from HepG2 liver cells (immunoassay of culture supernatant)
Assay type: cell-based
Conditions: Homo sapiens, substance concentration at which light absorption (450 nm) is inhibited by 50% vs solvent control, read-out: Apo B IC50
Protocol: The test for detection of the inhibition of the release of ApoB-100-associated lipoproteins from liver cells was carried out in vitro using cultured liver cells, preferably using cells of the human line HepG2. These cells are cultured under standard conditions in medium for the culture of eucaryotic cells, preferably in RPMI 1640 using 10% foetal calf serum. HepG2 cells synthesize and secrete into the culture supernatant ApoB-100-associated lipoprotein particles, which in principle are of similar construction to the VLDL or LDL particles which are to be, found in the plasma.
These particles can be detected using an immunoassay for human LDL. This immunoassay is carried out using antibodies which have been induced under standard conditions in the rabbit to human LDL. The anti-LDL antibodies (rabbit anti-LDL-Ab) were purified by affinity chromatography on an immunosorbent using human LDL. These purified rabbit anti-LDL-Ab are adsorbed onto the surface of plastic. […] The immune complex on the plastic surface is detected using monoclonal antibodies which have been induced against human LDL and purified according to standard conditions. […] After acidification of the reaction mixture with H2 SO4, the specific light absorption at 450 nm is determined, which is a measure of the amount of ApoB-100-associated particles which have been secreted into the culture supernatant by the HepG2 cells. […]

pIC50	SMILES
8.09	Cc1cc(C)c2c3ccccc3n(Cc3ccc([C@@H](C(=O)Nc4ccccc4)C4CCCC4)cc3)c2n1 [Example 2]
7.90	CCCCCNC(=O)[C@H](c1ccc(Cn2c3ccccc3c3c(C)cc(C)nc32)cc1)C1CCCC1 [Example 20]

— patent publication US6194424A, “Arylacetamides and their use as medicaments” (Bayer Aktiengesellschaft, priority 1996, dated 2001)
